From patent US9375005B2, “5-halogenopyrazole indanyl carboxamides” (BAYER CROPSCIENCE AG, priority 2012, dated 2016)
Marks after values point to notes of the source that are not given here.

What was measured:
Pyrenophora teres = assay: In vivo preventive test on Pyrenophora teres (net blotch on barley); conditions: barley plants sprayed 24 h before contamination, grading 14 days after contamination
Description: Barley plants (“Plaisant” variety), sown in starter cups on a 50/50 peat soil-pozzolana substrate and grown at 22° C., are treated at the 1-leaf stage (10 cm height) by spraying with the active ingredient prepared as described above. Plants, used as controls, are treated with the mixture of acetone/tween/DMSO/water not containing the active material. After 24 hours, the plants are contaminated by spraying the leaves with an aqueous suspension of Pyrenophora teres spores (12 000 spores per ml). The spores are collected from a 12-day-old culture. […] Grading (% of efficacy) is carried out 14 days after the contamination, in comparison with the control plants.

Uromyces appendiculatus = assay: In vivo preventive test on Uromyces appendiculatus (bean rust); conditions: bean plants sprayed 24 h before contamination, grading 11 days after contamination
Description: Bean plants (“Saxa” variety), sown in starter cups on a 50/50 peat soil-pozzolana substrate and grown at 24° C., are treated at the 2-leaf stage (9 cm height) by spraying with the active ingredient prepared as described above. Plants, used as controls, are treated with the mixture of acetone/tween/DMSO/water not containing the active material. After 24 hours, the plants are contaminated by spraying the leaves with an aqueous suspension of Uromyces appendiculatus spores (150 000 spores per ml). […] Grading (% of efficacy) is carried out 11 days after the contamination, in comparison with the control plants.

[1] = Measurement of log P values by HPLC on reversed phase columns (EEC directive 79/831 Annex V.A8); assay type: physicochemical
Puccinia recondita = assay: In vivo preventive test on Puccinia recondita (brown rust on wheat); conditions: wheat plants sprayed 24 h before contamination, grading 12 days after contamination
Description: Plants, used as controls, are treated with the mixture of acetone/tween/DMSO/water not containing the active material. After 24 hours, the plants are contaminated by spraying the leaves with an aqueous suspension of Puccinia recondita spores (100 000 spores per ml). […] Grading (% of efficacy) is carried out 12 days after the contamination, in comparison with the control plants.

Sphaerotheca fuliginea = assay: In vivo preventive test on Sphaerotheca fuliginea (powdery mildew on cucurbits); conditions: gherkin plants sprayed 24 h before contamination, grading 12 days after contamination
Description: Gherkin plants (“Vert petit de Paris” variety), sown in starter cups on a 50/50 peat soil-pozzolana substrate and grown at 24° C., are treated at the Z11 cotyledon stage by spraying with the active ingredient prepared as described above. Plants, used as controls, are treated with the mixture of acetone/tween/DMSO/water not containing the active material. After 24 hours, the plants are contaminated by spraying the cotyledons with an aqueous suspension of Sphaerotheca fuliginea spores (100 000 spores per ml). The spores are collected from infected plants. The contaminated to gherkin plants are incubated at about 20° C. and at 70-80% relative humidity. Grading (% of efficacy) is carried out 12 days after the contamination, in comparison with the control plants.

Row | Structure (SMILES) | Eff. % (Pyrenophora teres; dose 500 ppm) | Eff. % (Uromyces appendiculatus; dose 500 ppm) | logP ([1]; method marked [a]) | Eff. % (Puccinia recondita; dose 500 ppm) | other results
1 | CCC1(C)CCc2c(NC(=O)c3c(C(F)F)nn(C)c3Cl)cccc21 (single isomer, unassigned) [Example 52] | 80% | 100% | 4.31[a] | 98% | –
2 | CC1Cc2cccc(NC(=O)c3c(C(F)F)nn(C)c3F)c2C1 (stereo not shown) [Example 7] | – | 100% | 3.31[a] | 98% | Eff. % (Sphaerotheca fuliginea; dose 500 ppm): 78%
3 | Cn1nc(C(F)F)c(C(=O)Nc2cccc3c2CC2(CCCC2)C3)c1Cl [Example 15] | 71% | 100% | 4.44[a] | 100% | –
4 | CC1CC(C)(C)c2c(I)ccc(NC(=O)c3c(C(F)F)nn(C)c3Cl)c21 (stereo not shown) [Example 20] | 97% | 99% | 4.91[a]; | 98% | logP ([1]; method marked [b]): 4.89[b]
5 | CC(C)C1Cc2c(NC(=O)c3c(C(F)F)nn(C)c3Cl)cccc2C1C (stereo not shown) [Example 21] | – | 100% | 4.69[a] | 98% | Eff. % (Sphaerotheca fuliginea; dose 500 ppm): 89%
6 | CC1CC(C)(C)c2c(Br)ccc(NC(=O)c3c(C(F)F)nn(C)c3Cl)c21 (stereo not shown) [Example 36] | 75% | 77% | 4.77[a]; | – | logP ([1]; method marked [b]): 4.68[b]
7 | CC1CC(C)(C)c2cccc(NC(=O)c3c(C(F)F)nn(C)c3Br)c21 (stereo not shown) [Example 42] | – | 100% | 4.03[a] | 100% | Eff. % (Sphaerotheca fuliginea; dose 500 ppm): 100%
8 | CC1CC(C)(C)c2c(Br)ccc(NC(=S)c3c(C(F)F)nn(C)c3F)c21 (stereo not shown) [Example 55] | 75% | 70% | 4.64[a]; | 94% | logP ([1]; method marked [b]): 4.49[b]
9 | Cn1nc(C(F)F)c(C(=O)Nc2cccc3c2CC(C2CCCC2)C3)c1Cl (stereo not shown) [Example 57] | 97% | 100% | 5.03[a] | 94% | –
10 | Cn1nc(C(F)F)c(C(=O)Nc2cccc3c2CCC3C(C)(C)C)c1Cl (stereo not shown) [Example 67] | – | 100% | 4.64[a] | 94% | –
11 | CC(C)C1Cc2c(NC(=O)c3c(C(F)F)nn(C)c3Br)cccc2C1(C)C (stereo not shown) [Example 68] | – | 100% | 4.92[a] | 98% | –
12 | Cn1nc(C(F)F)c(C(=O)Nc2cccc3c2CC(C)(C)C3)c1Br [Example 71] | – | 99% | 3.87[a] | 98% | –
13 | Cn1nc(C(F)F)c(C(=S)Nc2cccc3c2CCC3C(C)(C)C)c1Cl (stereo not shown) [Example 74] | – | 100% | 4.64[a] | 100% | Eff. % (Sphaerotheca fuliginea; dose 500 ppm): 98%
14 | CC1CC2(CC2)c2cccc(NC(=O)c3c(C(F)F)nn(C)c3Br)c21 (stereo not shown) [Example 76] | – | 100% | 3.83[a] | 98% | –
15 | CC1c2cccc(NC(=O)c3c(C(F)F)nn(C)c3Cl)c2CC1(C)C (stereo not shown) [Example 77] | – | 100% | 4.19[a] | 100% | Eff. % (Sphaerotheca fuliginea; dose 500 ppm): 98%
16 | CC(C)CC1CC(C)c2c(NC(=O)c3c(C(F)F)nn(C)c3Cl)cccc21 (stereo not shown) [Example 79] | 92% | 100% | 4.98[a] | 94% | –

Row | Structure (SMILES) | Eff. % (Pyrenophora teres; dose 500 ppm) | Eff. % (Uromyces appendiculatus; dose 500 ppm) | logP ([1]; method marked [a]) | Eff. % (Puccinia recondita; dose 500 ppm) | other results
17 | CC1c2cccc(NC(=O)c3c(C(F)F)nn(C)c3Br)c2CC1(C)C (stereo not shown) [Example 81] | – | 99% | 4.16[a] | 98% | –
18 | CCON=C1CC(C)c2c(NC(=O)c3c(C(F)F)nn(C)c3Cl)cccc21 (stereo not shown) [Example 82] | 75% | 99% | 3.42[a] | 88% | –
19 | CCCON=C1CC(C)c2c(NC(=O)c3c(C(F)F)nn(C)c3Cl)cccc21 (stereo not shown) [Example 84] | 75% | – | 3.92[a] | 81% | –
20 | CC1c2c(NC(=O)c3c(C(F)F)nn(C)c3Cl)cccc2C(C)(C)C1C (stereo not shown) [Example 85] | 92% | 99% | 4.2[a] | 98% | –
21 | CON=C1CC(C)c2c(NC(=O)c3c(C(F)F)nn(C)c3Cl)cccc21 (stereo not shown) [Example 88] | – | 100% | 2.98[a] | 81% | –
22 | CC(C)C1Cc2c(NC(=S)c3c(C(F)F)nn(C)c3Cl)cccc2C1(C)C (stereo not shown) [Example 92] | – | – | 4.9[a] | – | Eff. % (Sphaerotheca fuliginea; dose 100 ppm): 100%; Eff. % (Pyrenophora teres; dose 100 ppm): 70%; Eff. % (Uromyces appendiculatus; dose 100 ppm): 100%; Eff. % (Puccinia recondita; dose 100 ppm): 94%
23 | CC(C)C1Cc2c(NC(=S)c3c(C(F)F)nn(C)c3Cl)cccc2C1(C)C (stereo not shown) [Example 94, 5-chloro-3-(difluoromethyl)-N-(2-isopropyl-1,1-dimethyl-2,3-dihydro-1H-inden-4-yl)-1-methyl-1H-pyrazole-4-carbothioamide] | – | 99% | – | 89% | logP ([1]; pH 2.7): 4.92[a]
24 | CC(C)C1Cc2c(NC(=S)c3c(C(F)F)nn(C)c3F)cccc2C1(C)C (stereo not shown) [Example 95] | – | – | 4.76[a] | – | Eff. % (Sphaerotheca fuliginea; dose 100 ppm): 100%; Eff. % (Pyrenophora teres; dose 100 ppm): 70%; Eff. % (Uromyces appendiculatus; dose 100 ppm): 100%; Eff. % (Puccinia recondita; dose 100 ppm): 98%
25 | CC1CC(CC(C)(C)C)c2cccc(NC(=S)c3c(C(F)F)nn(C)c3Cl)c21 (stereo not shown) [Example 98] | – | 100% | 5.31[a] | 98% | Eff. % (Sphaerotheca fuliginea; dose 500 ppm): 98%
26 | CC(C)CC1CC(C)c2c(NC(=O)c3c(C(F)F)nn(C)c3Cl)cccc21 (stereo not shown) [Example 99] | – | – | 5.01[a] | – | Eff. % (Uromyces appendiculatus; dose 100 ppm): 100%; Eff. % (Puccinia recondita; dose 100 ppm): 100%
27 | CC(C)C1Cc2c(NC(=S)c3c(C(F)F)nn(C)c3Br)cccc2C1(C)C (stereo not shown) [Example 102] | – | – | 4.87[a] | – | Eff. % (Uromyces appendiculatus; dose 100 ppm): 100%; Eff. % (Puccinia recondita; dose 100 ppm): 94%
28 | CC1CC2(CCCCC2)c2cccc(NC(=S)c3c(C(F)F)nn(C)c3F)c21 (stereo not shown) [Example 104] | – | – | 4.88[a] | – | Eff. % (Sphaerotheca fuliginea; dose 100 ppm): 100%; Eff. % (Uromyces appendiculatus; dose 100 ppm): 100%; Eff. % (Puccinia recondita; dose 100 ppm): 100%
29 | CC1CC2(CCCCC2)c2cccc(NC(=S)c3c(C(F)F)nn(C)c3Cl)c21 (stereo not shown) [Example 108] | – | – | 5.01[a] | – | Eff. % (Uromyces appendiculatus; dose 100 ppm): 100%; Eff. % (Puccinia recondita; dose 100 ppm): 90%
30 | CC1CCc2c(NC(=O)c3c(C(F)F)nn(C)c3Cl)cccc21 (stereo not shown) [Example 109] | – | – | 3.52[a] | – | Eff. % (Uromyces appendiculatus; dose 100 ppm): 99%; Eff. % (Puccinia recondita; dose 100 ppm): 94%
31 | CC1CC2(CCCCC2)c2cccc(NC(=O)c3c(C(F)F)nn(C)c3Cl)c21 (stereo not shown) [Example 110] | – | – | 5.01[a] | – | Eff. % (Uromyces appendiculatus; dose 100 ppm): 99%; Eff. % (Puccinia recondita; dose 100 ppm): 83%
32 | CC1CC2(CCCC2)c2cccc(NC(=O)c3c(C(F)F)nn(C)c3Cl)c21 (stereo not shown) [Example 111] | – | – | 4.64[a] | – | Eff. % (Uromyces appendiculatus; dose 100 ppm): 100%; Eff. % (Puccinia recondita; dose 100 ppm): 98%
